Experimental data as given in patent EP3807270B1, “NOVEL HETEROARYL HETEROCYCLYL COMPOUNDS FOR THE TREATMENT OF AUTOIMMUNE DISEASE” (F. Hoffmann-La Roche AG, priority 2018, dated 2019).

What was measured:
[1] = molecular target: T1, human TLR8 (Homo sapiens, UniProt Q9NR97); experiment: HEK293-Blue-hTLR-8 cells assay (SEAP reporter, R848 stimulation); assay type: cell-based; conditions: HEK293-Blue-hTLR8 cells, R848, 20 hrs; read-out: HEK/hTLR8 IC50
T1 construct: host or cells: HEK293 (HEK-Blue)
T1 sequence (Q9NR97 27-1041): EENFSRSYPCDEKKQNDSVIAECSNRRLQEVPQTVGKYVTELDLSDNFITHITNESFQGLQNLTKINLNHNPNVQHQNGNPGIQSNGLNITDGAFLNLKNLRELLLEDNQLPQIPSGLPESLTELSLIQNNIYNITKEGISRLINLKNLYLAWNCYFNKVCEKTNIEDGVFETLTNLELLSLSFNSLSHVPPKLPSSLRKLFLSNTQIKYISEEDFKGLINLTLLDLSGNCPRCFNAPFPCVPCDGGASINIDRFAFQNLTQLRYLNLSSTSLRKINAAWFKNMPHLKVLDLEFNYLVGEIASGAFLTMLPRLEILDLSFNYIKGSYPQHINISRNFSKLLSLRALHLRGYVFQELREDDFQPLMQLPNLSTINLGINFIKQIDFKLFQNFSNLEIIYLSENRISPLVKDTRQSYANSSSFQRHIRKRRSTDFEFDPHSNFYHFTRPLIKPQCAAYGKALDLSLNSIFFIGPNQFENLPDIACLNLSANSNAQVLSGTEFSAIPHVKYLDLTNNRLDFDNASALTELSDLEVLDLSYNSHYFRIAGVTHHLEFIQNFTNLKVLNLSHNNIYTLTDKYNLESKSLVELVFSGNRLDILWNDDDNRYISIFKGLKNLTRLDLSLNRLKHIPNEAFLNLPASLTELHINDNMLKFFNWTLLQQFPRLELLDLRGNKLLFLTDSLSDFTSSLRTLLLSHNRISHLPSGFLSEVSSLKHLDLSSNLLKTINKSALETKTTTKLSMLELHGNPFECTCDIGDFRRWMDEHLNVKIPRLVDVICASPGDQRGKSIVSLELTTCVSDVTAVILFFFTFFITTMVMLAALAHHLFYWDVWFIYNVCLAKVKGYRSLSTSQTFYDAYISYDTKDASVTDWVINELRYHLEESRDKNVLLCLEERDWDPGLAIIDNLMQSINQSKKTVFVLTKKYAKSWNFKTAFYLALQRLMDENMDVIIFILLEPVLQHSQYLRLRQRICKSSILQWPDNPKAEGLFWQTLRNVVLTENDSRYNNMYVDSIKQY
How it was run: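 HEK293-Blue-hTLR8 cells (NF-κB/AP-1-driven SEAP) in DMEM/10% FBS were treated with serially diluted compound (1% DMSO final) plus R848 for 20 hrs at 37 °C. Supernatant SEAP was measured with QUANTI-Blue after 2 hrs at 37 °C, absorbance 620-655 nm; antagonism seen as reduced reporter.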

[2] = molecular target: T2, CYP2D6 (Homo sapiens, UniProt P10635); experiment: CYP inhibition assay in human liver microsome; assay type: in vitro ADME; conditions: human liver microsomes, probe dextromethorphan, 10µM test compound, dextromethorphan substrate, <0: not or weak inhibitor, read-out: CYP 2D6 inhibition %@10µM
T2 construct: tissue BD-Gentest 452117; host or cells: human liver microsomes
T2 sequence (P10635 whole entry): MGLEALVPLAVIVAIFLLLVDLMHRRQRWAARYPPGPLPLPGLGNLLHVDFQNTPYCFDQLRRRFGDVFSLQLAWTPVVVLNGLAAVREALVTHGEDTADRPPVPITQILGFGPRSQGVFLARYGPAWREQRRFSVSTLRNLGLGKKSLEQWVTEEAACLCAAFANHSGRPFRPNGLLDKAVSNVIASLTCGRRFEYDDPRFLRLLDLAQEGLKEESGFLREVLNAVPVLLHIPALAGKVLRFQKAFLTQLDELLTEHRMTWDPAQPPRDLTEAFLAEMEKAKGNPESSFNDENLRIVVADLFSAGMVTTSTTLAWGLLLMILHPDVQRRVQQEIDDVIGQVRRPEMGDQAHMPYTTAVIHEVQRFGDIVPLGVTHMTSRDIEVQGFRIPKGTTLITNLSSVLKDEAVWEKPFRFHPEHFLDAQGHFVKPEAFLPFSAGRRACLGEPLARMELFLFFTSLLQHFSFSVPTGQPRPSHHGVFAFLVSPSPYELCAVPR
How it was run: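 HLM mixed with CYP2D6 substrate, preincubated 10 min at 37 °C, started with NADPH regenerating system and run 10 min at 37 °C before acetonitrile quench. Metabolite measured by RapidFire MS/MS against D3-dextrorphan internal standard. % inhibition scaled between DMSO and concentrated-inhibitor controls.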

| Structure (SMILES) | IC50 [1] [nM] | inhibition at 10 min, 10 µM [2] [%] |
| --- | --- | --- |
| C[C@@H]1CN(c2ccc(C#N)c3ncccc23)C[C@H](CN2CCN(c3cnc4c(c3)CNCC4)CC2)O1 [Example 21, 5-[(2R,6S)-2-methyl-6-[[4-(5,6,7,8-tetrahydro-1,6-naphthyridin-3-yl)piperazin-1-yl]methyl]morpholin-4-yl]quinoline-8-carbonitrile] | 9 | -4.5 |
| C[C@@H]1CN(c2ccc(C#N)c3ncccc23)C[C@H](CN2CCN(c3ccc4c(c3)C(O)CNC4)CC2)O1 (stereo partly drawn) [Example 22, 5-[(2S,6R)-2-[[4-(4-hydroxy-1,2,3,4-tetrahydroisoquinolin-6-yl)piperazin-1-yl]methyl]-6-methyl-morpholin-4-yl]quinoline-8-carbonitrile] | 19 | 6 |
| C[C@@H]1CN(c2ccc(C#N)c3ncccc23)C[C@H](CN2CCN(c3cnc4c(c3)CCNC4)CC2)O1 [Example 23, 5-[(2R,6S)-2-methyl-6-[[4-(5,6,7,8-tetrahydro-1,7-naphthyridin-3-yl)piperazin-1-yl]methyl]morpholin-4-yl]quinoline-8-carbonitrile] | 11 | 3.5 |
| C[C@@H]1CN(c2ccc(C#N)c3ncccc23)C[C@H](CN2CCN(c3ccc4c(c3)CCNC4CO)CC2)O1 (stereo partly drawn) [Example 24, 5-[(2S,6R)-2-[[4-[1-(hydroxymethyl)-1,2,3,4-tetrahydroisoquinolin-6-yl]piperazin-1-yl]methyl]-6-methyl-morpholin-4-yl]quinoline-8-carbonitrile] | 22 | -9.5 |
| C[C@@H]1CN(c2ccc(C#N)c3nccnc23)C[C@H](CN2CCN(c3cnc4c(c3)CNC4)CC2)O1 [Example 25, 8-[(2S,6R)-2-[[4-(6,7-dihydro-5H-pyrrolo[3,4-b]pyridin-3-yl)piperazin-1-yl]methyl]-6-methyl-morpholin-4-yl] quinoxaline-5-carbonitrile] | 17 | -8 |
| C[C@@H]1CN(c2ccc(C#N)c3ncccc23)C[C@H](CN2CCN(c3ncc4c(n3)CCNC4)CC2)O1 [Example 29, 5-[(2R,6S)-2-methyl-6-[[4-(5,6,7,8-tetrahydropyrido[4,3-d]pyrimidin-2-yl)piperazin-1-yl]methyl]morpholin-4-yl]quinoline-8-carbonitrile] | < 3 | 16.5 |
| C[C@@H]1CN(c2ccc(C#N)c3ncccc23)C[C@H](CN2CCN(c3ccc4c(n3)CNC4)CC2)O1 [Example 30, 5-[(2S,6R)-2-[[4-(6,7-dihydro-5H-pyrrolo[3,4-b]pyridin-2-yl)piperazin-1-yl]methyl]-6-methyl-morpholin-4-yl] quinoline-8-carbonitrile] | 7 | 17.5 |
| C[C@@H]1CN(c2ccc(C#N)c3ncccc23)C[C@H](CN2CCC(Nc3ncc4c(n3)CNC4)C2)O1 (stereo partly drawn) [Example 32, 5-[(2S,6R)-2-[[3-(6,7-dihydro-5H-pyrrolo[3,4-d]pyrimidin-2-ylamino)pyrrolidin-1-yl]methyl]-6-methyl-morpholin-4-yl]quinoline-8-carbonitrile] | 107 | 17.5 |
| C[C@@H]1CN(c2ccc(C#N)c3ncccc23)C[C@H](CN2CCCN(c3nc4c(s3)CNCC4)CC2)O1 [Example 33, 5-[(2R,6S)-2-methyl-6-[[4-(4,5,6,7-tetrahydrothiazolo[5,4-c]pyridin-2-yl)-1,4-diazepan-1-yl]methyl]morpholin-4-yl]quinoline-8-carbonitrile] | 11 | -10.5 |
| C[C@@H]1CN(c2ccc(C#N)c3ncccc23)C[C@H](CN2CCN(c3ccc4c(n3)CCN(C)C4)CC2)O1 [Example 34, 5-[(2R,6S)-2-methyl-6-[[4-(6-methyl-7,8-dihydro-5H-1,6-naphthyridin-2-yl)piperazin-1-yl]methyl]morpholin-4-yl]quinoline-8-carbonitrile] | 6 | 4 |
| C[C@@H]1CN(c2ccc(C#N)c3ncccc23)C[C@H](CN2CC3(CCN3c3ccc4c(n3)CCNC4)C2)O1 [Example 36, 5-[(2R,6S)-2-methyl-6-[[1-(5,6,7,8-tetrahydro-1,6-naphthyridin-2-yl)-1,6-diazaspiro[3.3]heptan-6-yl]methyl]morpholin-4-yl]quinoline-8-carbonitrile] | 43 | 13.5 |
| C[C@@H]1CN(c2ccc(C#N)c3ncccc23)C[C@H](CN2CCCN(c3ncc4c(n3)CCNC4)CC2)O1 [Example 39, 5-[(2R,6S)-2-methyl-6-[[4-(5,6,7,8-tetrahydropyrido[4,3-d]pyrimidin-2-yl)-1,4-diazepan-1-yl]methyl]morpholin-4-yl]quinoline-8-carbonitrile] | 12 | 8.5 |
| C[C@@H]1CN(c2ccc(C#N)c3ncccc23)C[C@H](CN2CCN(c3cnc4c(n3)CNCC4)CC2)O1 [Example 40, 5-[(2R,6S)-2-methyl-6-[[4-(5,6,7,8-tetrahydropyrido[3,4-b]pyrazin-3-yl)piperazin-1-yl]methyl]morpholin-4-yl]quinoline-8-carbonitrile] | 4 | 8 |
| CC1NCc2ncc(N3CCN(C[C@H]4CN(c5ccc(C#N)c6ncccc56)C[C@@H](C)O4)CC3)cc21 (stereo partly drawn) [Example 41, 5-[(2R,6S)-2-methyl-6-[[4-(5-methyl-6,7-dihydro-5H-pyrrolo[3,4-b]pyridin-3-yl)piperazin-1-yl]methyl]morpholin-4-yl]quinoline-8-carbonitrile] | 17 | -2 |
| C[C@@H]1CN(c2ccc(C#N)c3ncccc23)C[C@H](CN2CC3(C2)CN(c2ccc4c(c2)CCNC4)CCO3)O1 [Example 44, 5-[(2R,6S)-2-methyl-6-[[8-(1,2,3,4-tetrahydroisoquinolin-6-yl)-5-oxa-2,8-diazaspiro[3.5]nonan-2-yl]methyl]morpholin-4-yl]quinoline-8-carbonitrile] | 4 | 4 |
| C[C@@H]1CN(c2ccc(C#N)c3ncccc23)C[C@H](CN2CC3(C2)CN(c2ccc4c(n2)CNCC4)CCO3)O1 [Example 45, 5-[(2R,6S)-2-methyl-6-[[8-(5,6,7,8-tetrahydro-1,7-naphthyridin-2-yl)-5-oxa-2,8-diazaspiro[3.5]nonan-2-yl]methyl]morpholin-4-yl]quinoline-8-carbonitrile] | 10 | 9 |
| C[C@@H]1CN(c2ccc(C#N)c3ncccc23)C[C@H](CN2CC3(C2)CN(c2cnc4c(c2)CCNC4)CCO3)O1 [Example 46, 5-[(2R,6S)-2-methyl-6-[[8-(5,6,7,8-tetrahydro-1,7-naphthyridin-3-yl)-5-oxa-2,8-diazaspiro[3.5]nonan-2-yl]methyl]morpholin-4-yl]quinoline-8-carbonitrile] | 9 | 12 |
| C[C@@H]1CN(c2ccc(C#N)c3ncccc23)C[C@H](CN2CC3(C2)CN(c2cnc4c(c2)CNCC4)CCO3)O1 [Example 47, 5-[(2R,6S)-2-methyl-6-[[8-(5,6,7,8-tetrahydro-1,6-naphthyridin-3-yl)-5-oxa-2,8-diazaspiro[3.5]nonan-2-yl]methyl]morpholin-4-yl]quinoline-8-carbonitrile] | 20 | -21.5 |
